Measured values taken from US9771334B2, “Triketone compound and preparation method and use thereof” (SHANDONG CYNDA CHEMICAL CO., LTD., priority 2013, dated 2017).

Legend:
Assay in all cases: Herbicidal activity, pot culture method (primary and secondary screening test)
Assay type in all cases: in vivo
Conditions in all cases: primary screening, pot culture, 150 g/ha, sprayed at 3-leaf stage, result 15 days later
echinochloa crusgalli = system: echinochloa crusgalli
Source text: (§1) This test example is for describing the herbicidal activity inhibition ratio (%) (the dose is 150 g/ha) of the compound with a structure shown in Formula (I). Primary screening test (pot culture method): The test targets are abutilon theophrasti, digitaria sanguinalis, amaranthus retroflexus, echinochloa crusgalli, eclipta prostrata and setaria viridis. Take flowerpots with an inner diameter of 6 cm, put composite soil (vegetable garden soil:seedling matrix=1:2, v/v) into them till 3⁄4 of flowerpot height, directly sow the above six weed targets (budding rate>85%), cover them with 0.2 cm thick soil, and keep them for future use when the weeds grow to 3-leaf stage. Each compound is dissolved in N,N-dimethylformamide at a dose of 150 g/ha and diluted with distilled water into a 0.2 g/L solution. The solution is sprayed through an automatic spray tower. After the solution on weed leaves is aired dry, the flowerpots are moved into a greenhouse for cultivation. The result is investigated 15 days later. By the same method adopted in primary screening test, a secondary screening test is done on some typical compounds, such as: 5, 6, 20, 21, 23, 34, 47, 65, 66, 70 and 91 at a reduced dose, and the test result is compared with mesotrione which is commercially available and has a good herbicidal effect. The test method is same as that adopted in primary screening test. Mesotrione is bought from Hubei […] Chemical Co., Ltd.

digitaria sanguinalis = system: digitaria sanguinalis
Source text: as §1

eclipta prostrata = system: eclipta prostrata
Source text: as §1

abutilon theophrasti = system: abutilon theophrasti
Source text: as §1

amaranthus retroflexus = system: amaranthus retroflexus
Source text: as §1

setaria viridis = system: setaria viridis
Source text: as §1

SMILES | herbicidal activity inhibition ratio (%), Echinochloa crusgalli (echinochloa crusgalli) | herbicidal activity inhibition ratio (%), Digitaria sanguinalis (digitaria sanguinalis) | herbicidal activity inhibition ratio (%), Eclipta prostrata (eclipta prostrata) | herbicidal activity inhibition ratio (%), Abutilon theophrasti (abutilon theophrasti) | herbicidal activity inhibition ratio (%), Amaranthus retroflexus (amaranthus retroflexus) | herbicidal activity inhibition ratio (%), Setaria viridis (setaria viridis)
Cc1ccccc1-n1c(=O)c2cc(C(=O)C3=C(O)CC(C)(C)CC3=O)ccc2n(C)c1=S [Compound 87, 6-[(2-hydroxy-4,4-dimethyl-6-oxo-1-cyclohexenyl)carbonyl]-1-methyl-2-thio-3-(o-tolyl)-2,3-dihydroxyquinazoline-4(1H)-ketone] | 25% | 0% | 0% | 0% | 0% | 10%
COc1cccc(-n2c(=O)c3cc(C(=O)C4=C(O)CCCC4=O)ccc3n(C)c2=O)c1 [Compound 55] | 93% | 60% | 68% | 100% | 95% | 25%
Cn1c(=O)n(-c2ccc(Br)cc2)c(=O)c2cc(C(=O)C3=C(O)CCCC3=O)ccc21 [Compound 25] | 80% | 80% | 83% | 80% | 95% | 35%
Cc1cccc(-n2c(=O)c3cc(C(=O)C4=C(O)CC(C)(C)CC4=O)ccc3n(C)c2=O)c1 [Compound 18] | 70% | 90% | 75% | 75% | 100% | 85%
Cn1c(=O)n(-c2ccc(Cl)cc2Cl)c(=O)c2cc(C(=O)C3=C(O)CC(C)(C)CC3=O)ccc21 [Compound 63] | 25% | 20% | 50% | 100% | 30% | 30%
Cc1cccc(C)c1-n1c(=O)c2c(C)c(C(=O)C3=C(O)CCCC3=O)ccc2n(C)c1=O [Compound 93] | 100% | 100% | 100% | 100% | 100% | 100%
Cc1cccc(Cl)c1-n1c(=O)c2cc(C(=O)C3=C(O)CCCC3=O)ccc2n(C)c1=O [Compound 95] | 100% | 90% | 70% | 100% | 100% | 100%
Cc1ccc(-n2c(=O)c3cc(C(=O)C4=C(O)CC(C)(C)CC4=O)ccc3n(C)c2=O)cc1 [Compound 15] | 70% | 75% | 60% | 60% | 70% | 75%
CCCCn1c(=O)n(-c2ccccc2C)c(=O)c2cc(C(=O)C3=C(O)CC(C)(C)CC3=O)ccc21 [Compound 74] | 0% | 0% | 0% | 50% | 0% | 10%
Cn1c(=O)n(-c2ccccc2C(F)(F)F)c(=O)c2cc(C(=O)C3=C(O)CC(C)(C)CC3=O)ccc21 [Compound 41] | 73% | 85% | 80% | 100% | 95% | 25%
Cn1c(=O)n(-c2ccc(OC(F)(F)F)cc2)c(=O)c2cc(C(=O)C3=C(O)CCCC3=O)ccc21 [Compound 50] | 78% | 60% | 80% | 50% | 95% | 50%
COc1ccccc1-n1c(=O)c2c(C)c(C(=O)C3=C(O)CCCC3=O)ccc2n(C)c1=O [Compound 88] | 100% | 100% | 100% | 100% | 100% | 100%
Cc1ccc(-n2c(=O)c3cc(C(=O)C4=C(O)CC(C)CC4=O)ccc3n(C)c2=O)cc1 (stereo not drawn) [Compound 16] | 85% | 100% | 75% | 70% | 70% | 100%
Cc1cccc(-n2c(=O)c3cc(C(=O)C4=C(O)CC(C)CC4=O)ccc3n(C)c2=O)c1 (stereo not drawn) [Compound 19] | 70% | 85% | 85% | 75% | 100% | 100%
Cn1c(=O)n(-c2ccc([N+](=O)[O-])cc2)c(=O)c2cc(C(=O)C3=C(O)CC(C)(C)CC3=O)ccc21 [Compound 53] | 0% | 25% | 80% | 100% | 80% | 80%
Cn1c(=O)n(-c2ccccc2C(F)(F)F)c(=O)c2cc(C(=O)C3=C(O)CCCC3=O)ccc21 [Compound 38] | 90% | 85% | 75% | 90% | 100% | 80%
CCn1c(=O)n(-c2ccccc2C)c(=O)c2cc(C(=O)C3=C(O)CC(C)(C)CC3=O)ccc21 [Compound 69] | 90% | 30% | 88% | 100% | 95% | 85%
